Measured values from PMC12118597 (Science Advances, 2025).
Where two headings read alike, the source gives them in different places.

Biological target: SARS-CoV-2 NSP3 macrodomain (Mac1) (Severe acute respiratory syndrome coronavirus 2, UniProt P0DTD1)
Format: binding
Details: for 1-BDC: PanDDA background density correction factor; for PanDDA run, overall: Hit / PanDDA run, overall: Modeled / PanDDA run, DMSO background map: 1-BDC / PanDDA run, DMSO background map: Hit / PanDDA run, overall: Modeling comment / PanDDA run, TFA/DMSO background map: 1-BDC / PanDDA run, TFA/DMSO background map: Hit: crystal soak 10 mM; for PanDDA run, overall: Hit / PanDDA run, overall: Modeled / PanDDA run, overall: Modeling comment: P43 crystal form; for Total number of conformations: ligand conformations modeled in the crystal structure; for 2*(1-BDC) (%): occupancy estimate from PanDDA; for Refined ligand occupancy (%): refined crystallographic occupancy
[1] = TRUE = crystal structure with ligand obtained
[2] = site of ligand in X-ray crystal structure
[3] = ligand-bound crystal structure obtained (TRUE)
[4] = site occupied in X-ray crystal structure

SMILES | Occupancy difference (refined_occupancy - 2*(1-BDC)) | 1-BDC | X-ray crystal structure [1] | PanDDA run, overall: Hit | PanDDA run, overall: Modeled | PanDDA run, DMSO background map: 1-BDC | PanDDA run, DMSO background map: Hit | Total number of conformations | 2*(1-BDC) (%) | Refined ligand occupancy (%) | Binding site [2] | PanDDA run, overall: Modeling comment | PanDDA run, TFA/DMSO background map: 1-BDC | PanDDA run, TFA/DMSO background map: Hit | Binding site (site of Mac1 occupied in the X-ray crystal structure) | X-ray crystal structure [3] | Binding site [4]
O=C(O)C(F)(F)F.O[C@H]1CCC[C@@H]1Nc1ncnc2[nH]ccc12 [AVI-3639] | 0 | 0.11 | TRUE | TRUE | TRUE | 0.11 | TRUE | 1 | 22% | 22% | Adenosine | – | – | – | – | – | –
OCC(CC1CCC1)Nc1ncnc2[nH]ccc12 (stereo not shown) [AVI-3641] | 0 | 0.18 | TRUE | TRUE | TRUE | 0.18 | TRUE | 1 | 36% | 36% | Adenosine | – | – | – | – | – | –
OCC(CC(O)c1ccccc1)Nc1ncnc2[nH]ccc12 (stereo not shown) [AVI-3642] | 0 | 0.17 | TRUE | TRUE | TRUE | 0.17 | TRUE | 1 | 34% | 34% | Adenosine | – | – | – | – | – | –
CCCC(CO)Nc1ncnc2[nH]ccc12 (stereo not shown) [AVI-3643] | 0 | 0.16 | TRUE | TRUE | TRUE | 0.16 | TRUE | 1 | 32% | 32% | Adenosine | – | – | – | – | – | –
C#CCC(CO)Nc1ncnc2[nH]ccc12 (stereo not shown) [AVI-3644] | 0 | 0.18 | TRUE | TRUE | TRUE | 0.18 | TRUE | 1 | 36% | 36% | Adenosine | – | – | – | – | – | –
O=C(O)C(F)(F)F.OCC(Nc1ncnc2[nH]ccc12)C1CCCO1 (stereo not shown) [AVI-3645] | – | – | – | TRUE | – | 0.22 | TRUE | – | – | – | – | Weak density, not modeled | 0.12 | TRUE | – | – | –
OC1CCCN(c2ncnc3[nH]ccc23)C1 (stereo not shown) [AVI-3646] | 0 | 0.22 | TRUE | TRUE | TRUE | 0.22 | TRUE | 1 | 44% | 44% | – | – | – | – | Adenosine | – | –
CC(C)(C)CC(CO)Nc1ncnc2[nH]ccc12 (stereo not shown) [AVI-3648] | 0 | 0.13 | TRUE | TRUE | TRUE | 0.13 | TRUE | 1 | 26% | 26% | Adenosine | – | – | – | – | – | –
OCC(Nc1ncnc2[nH]ccc12)C1CCCC1 (stereo not shown) [AVI-3649] | 0 | 0.16 | TRUE | TRUE | TRUE | 0.16 | TRUE | 1 | 32% | 32% | Adenosine | – | – | – | – | – | –
OCC(Cc1c[nH]c2ccccc12)Nc1ncnc2[nH]ccc12 (stereo not shown) [AVI-3650] | 0 | 0.15 | TRUE | TRUE | TRUE | 0.15 | TRUE | 2 | 30% | 30% | Adenosine | – | – | – | – | – | –
OC(c1ccccc1)C1CCCN1c1ncnc2[nH]ccc12 (stereo not shown) [AVI-3652] | 0 | 0.22 | – | TRUE | TRUE | 0.22 | TRUE | 1 | 44% | 44% | – | – | – | – | – | TRUE | Adenosine
O=C(O)C(F)(F)F.OC[C@@H](CCc1ccccc1)Nc1ncnc2[nH]ccc12 [AVI-3654] | – | – | – | TRUE | – | 0.14 | TRUE | – | – | – | – | Weak density for phenyl, not modeled | 0.07 | TRUE | – | – | –
CC1CCN(c2ncnc3[nH]ccc23)C1CO (stereo not shown) [AVI-3655] | 0 | 0.21 | – | TRUE | TRUE | 0.21 | TRUE | 1 | 42% | 42% | – | – | – | – | – | TRUE | Adenosine
CO[C@@H]1C[C@H](CO)N(c2ncnc3[nH]ccc23)C1 [AVI-3656] | 0 | 0.26 | – | TRUE | TRUE | 0.26 | TRUE | 1 | 52% | 52% | – | – | – | – | – | TRUE | Adenosine
Cn1cc(CC(CO)Nc2ncnc3[nH]ccc23)cn1 (stereo not shown) [AVI-3657] | 0 | 0.15 | TRUE | TRUE | TRUE | 0.15 | TRUE | 1 | 30% | 30% | Adenosine | – | – | – | – | – | –
OCC(CC1OCCO1)Nc1ncnc2[nH]ccc12 (stereo not shown) [AVI-3658] | 0 | 0.2 | TRUE | TRUE | TRUE | 0.2 | TRUE | 1 | 40% | 40% | Adenosine | – | – | – | – | – | –
